Holding throughout (assay): NCI tumour cell line growth inhibition, 48 h
Assay [1] deals with CAKI-1.
Assay [2] concerns EKVX.
The subject of assay [3] is A549.
Assay [4] deals with OVCAR-4.
The subject of assay [5] is KM12.
Assay [6] has as its system UO-31.
Assay [7] has as its system HT-29.
Assay [8] concerns OVCAR-8.
Assay [9] has as its system HCT-15.
The subject of assay [10] is SF-539.
Assay [11] relates to SW-620.
Assay [12] relates to HOP-92.
Assay [13] concerns RPMI-8226.
Assay [14] deals with SN12C.
The subject of assay [15] is IGROV-1.
The test system of assay [16] is SK-MEL-28.
Assay [17] has as its system MOLT-4.
Assay [18] deals with ACHN.
The test system of assay [19] is NCI-H460.
Assay [20] relates to MCF7.

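Growth conditions: 96-well plates. Treatment: test compound, 48 hours, 5 concentrations. Analysis: linear interpolation between bracketing concentrations; unreached endpoints set to highest concentration. Here, GI50 denotes the concentration required for 50% inhibition of growth.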 The source made the active and inactive calls. No stated cut-off is given here; in the data, active = GI50 up to about 1.1 µM and inactive = higher.

Experimental findings from ChEMBL document CHEMBL1201862, “PubChem BioAssay data set” (2004) are described below.

`CCCCCCCCC[C@@H]1C[C@H](O)[C@H](Cc2ccccc2)N1C(=O)OC(C)(C)C`: the GI50 in assay [1] is 21.9 µM (inactive); in [2], 14.4 µM (inactive); in assay [3], 18 µM (inactive); in assay [4], 17.7 µM (inactive); in [5] it was 18.7 µM (inactive); in assay [6], 14.3 µM (inactive). Moreover, the GI50 is 16.7 µM (inactive) in assay [7]; 17.5 µM (inactive) in assay [8]; 18.6 µM in assay [9]; 20.9 µM (inactive) in assay [10]; 20.1 µM (inactive) in assay [11]; 15 µM (inactive) in assay [12]. Besides, the GI50 is 24.1 µM (inactive) in assay [13]; 16.7 µM (inactive) in [14]; 18.6 µM (inactive) in [15]; 19.7 µM (inactive) in assay [16]; 36.5 µM (inactive) in [17]; 17.1 µM (inactive) in [18].

As to `CN(CCO)CCC1COc2ccccc2O1` (configuration not stated), the GI50 in assay [1], in assay [2], in [3], in assay [4], in [5] and in [6] was > 10 µM (inactive) each time. Also, the GI50 was > 10 µM (inactive) in [7]; > 10 µM (inactive) in assay [8]; above 10 µM in [9]; > 10 µM (inactive) in assay [10]; > 10 µM (inactive) in assay [11]; > 10 µM (inactive) in [13]. The GI50 in assay [14], in [15], in assay [19], in assay [20], in [16] and in assay [17] was > 10 µM (inactive) in each case. In addition, in [18], the GI50 is > 10 µM (inactive).

Turning to `Cc1nnc2sc(N/N=C/c3ccccc3)nn12`, the GI50 in assay [1], in [2], in assay [3], in assay [4], in assay [5] and in [6] was > 100 µM (inactive) in each case. In addition, the GI50 was > 100 µM (inactive) in assay [7]; > 100 µM (inactive) in [8]; above 100 µM in [9]; > 100 µM (inactive) in assay [10]; > 100 µM (inactive) in assay [11]; > 100 µM (inactive) in assay [13]. The GI50 in assay [14], in [15], in [19], in assay [20], in [16] and in [17] was > 100 µM (inactive) each time. The GI50 in [18] is > 100 µM (inactive).

In the case of `CC1=C2C(=C[C@H]3[C@]4(C)CCCC(C)(C)[C@H]4CC[C@]34O[C@H]24)OC1=O`, the GI50 in assay [2], in assay [3], in [4], in assay [5], in [6] and in assay [7] was > 100 µM (inactive) throughout. Also, the GI50 in [9] is above 100 µM; in assay [11], > 100 µM (inactive); in assay [12] it was > 100 µM (inactive); in assay [13] it was > 100 µM (inactive); in assay [14], > 100 µM (inactive); in assay [15], > 100 µM (inactive). Also, the GI50 in assay [19], in assay [20], in assay [16], in assay [17] and in assay [18] was > 100 µM (inactive) throughout.

Take `CC(C)CCC1CC2C(=O)N(c3ccccc3)C(=O)C2c2[nH]c3ccccc3c21` (configuration not stated): the GI50 is 1.55 µM (inactive) in assay [2]; 0.412 µM (active) in [3]; 4.76 µM (inactive) in assay [4]; 1.28 µM (inactive) in assay [5]; 6.28 µM (inactive) in assay [6]; 3.4 µM (inactive) in assay [7]. In addition, the GI50 is 0.9 µM (active) in [8]; 2.71 µM in assay [9]; 0.711 µM (active) in assay [10]; 0.796 µM (active) in assay [11]; 1.08 µM (active) in assay [13]; 2.67 µM (inactive) in assay [14]. Further, the GI50 in [15] is 13.4 µM (inactive); in [19], 1.13 µM (inactive); in [16], 4.68 µM (inactive); in [17], 2.77 µM (inactive); in [18], 6.07 µM (inactive).

For the compound `N#CSCC1COc2ccccc2O1` (configuration not stated), the GI50 in assay [1], in assay [2], in assay [3], in assay [4], in assay [5] and in assay [6] was > 10 µM (inactive) each time. The GI50 was > 10 µM (inactive) in assay [7]; > 10 µM (inactive) in assay [8]; 9.89 µM in assay [9]; > 10 µM (inactive) in assay [10]; 4.97 µM (inactive) in [11]; 4.98 µM (inactive) in assay [13]. Moreover, the GI50 in assay [14] was 7.57 µM (inactive); in assay [15], > 10 µM (inactive); in assay [19] it was > 10 µM (inactive); in assay [20], > 10 µM (inactive); in assay [16] it was > 10 µM (inactive); in assay [17] it was 3.3 µM (inactive). Also, the GI50 in assay [18] is > 10 µM (inactive).

Regarding `CC1(C)CC(=O)c2c(nc3ccc4ccccc4c3c2-c2ccc(NC(=O)CCC(=O)Nc3ccc(-c4c5c(nc6ccc7ccccc7c46)CC(C)(C)CC5=O)cc3)cc2)C1`, the GI50 in [1], in assay [2], in assay [3], in assay [5], in assay [6] and in [7] was > 100 µM (inactive) each time. Moreover, the GI50 in assay [8], in assay [10], in [11], in assay [13], in assay [14] and in assay [15] was > 100 µM (inactive) each time. In addition, the GI50 in assay [19], in [20], in assay [16], in assay [17] and in assay [18] was > 100 µM (inactive) throughout.

Regarding `CCC1CN2CCC1CC2` (configuration not stated), the GI50 in [2], in assay [3], in [4], in assay [5], in assay [6] and in assay [7] was > 100 µM (inactive) throughout. Moreover, the GI50 in assay [8] is > 100 µM (inactive); in assay [9], above 100 µM; in assay [10] it was > 100 µM (inactive); in assay [11], > 100 µM (inactive); in assay [13] it was > 100 µM (inactive); in [14] it was > 100 µM (inactive). Also, the GI50 in assay [15], in assay [19], in [20], in assay [16] and in assay [17] was > 100 µM (inactive) throughout.

Regarding `O=C1C2C(C(=O)N1OS(=O)(=O)c1ccccc1)N(Cc1ccccc1)C(=O)N2Cc1ccccc1` (configuration not stated), the GI50 in assay [1], in assay [2], in assay [3], in assay [4], in assay [5] and in [6] was > 100 µM (inactive) each time. For the same compound, the GI50 was > 100 µM (inactive) in assay [7]; above 100 µM in assay [9]; > 100 µM (inactive) in assay [10]; > 100 µM (inactive) in [11]; > 100 µM (inactive) in assay [12]; > 100 µM (inactive) in assay [13]. Further, the GI50 in assay [14], in assay [15], in assay [19], in assay [16], in [17] and in [18] was > 100 µM (inactive) throughout.

Turning to `CCCC(=O)OC[n+]1ccc2c(C)c3[nH]c4ccc(OC)cc4c3c(C)c2c1`, the GI50 in [1] was 0.908 µM (active); in assay [2], 1.01 µM (active); in [3] it was 0.306 µM (active); in assay [4] it was 1.03 µM (active); in [5], 0.337 µM (active); in assay [6] it was 1.74 µM (inactive). Further, the GI50 in assay [7] was 0.0931 µM (active); in assay [8] it was 0.092 µM (active); in [9], 0.288 µM; in assay [10], 0.305 µM (active); in assay [11], 0.0692 µM (active); in [12], 1.16 µM (inactive). The GI50 in assay [13] is 0.0296 µM (active); in assay [14], 0.222 µM (active); in assay [15], 0.625 µM (active); in assay [19], 0.0481 µM (active); in assay [16], 0.74 µM (active); in assay [17], 0.0289 µM (active). In assay [18], the GI50 was 0.215 µM (active).

`CC(=O)N(CCN1C(=O)c2ccccc2C1=O)CCN1C(=O)c2ccccc2C1=O`: the GI50 in assay [1], in [2], in assay [3], in assay [4], in [5] and in assay [6] was > 100 µM (inactive) in each case. The GI50 in [8] is > 100 µM (inactive); in [9] it was above 100 µM; in assay [11], > 100 µM (inactive); in assay [12], > 100 µM (inactive); in [13] it was > 100 µM (inactive); in assay [14], > 100 µM (inactive). Besides, the GI50 in assay [19], in assay [16], in assay [17] and in assay [18] was > 100 µM (inactive) each time.

As for `COc1c(Cl)cc(S(=O)O)cc1Cl`, the GI50 in assay [2], in assay [4], in [5], in [6], in assay [7] and in assay [10] was > 100 µM (inactive) throughout. Besides, the GI50 in assay [14], in [19], in assay [16], in [17] and in assay [18] was > 100 µM (inactive) in each case.
